row,SMILES,melting point
1,COc1ccc(C2=C(c3ccc(C=CC(=O)O)cc3)c3ccc(OC)cc3CC2)cc1,206 °C
2,COCOc1c(-c2ccc(C(=O)O)cc2)cccc1-c1ccc2c(c1)C(C)(C)CCC2(C)C,74 °C
3,NC(=O)c1ccc(F)c2c1C=CCO2,189 to 190 °C
4,O=C1CCCC(O)=C1NC(=O)C1CC1,82 °C
5,CC(=O)C(O)C1OC(n2cc(C#N)c(=O)[nH]c2=O)CC1C(C)=O (centres undefined),160 to 162 °C
6,CCC1(C)C(=O)NN=C1c1ccc(-n2ccnc2)cc1 (centres undefined),86 to 88 °C
7,CC(C)(C)OC(=O)N1C(=O)[C@H]2C=C[C@@H]1C2,70.5 to 71.5 °C
8,CCCc1nc2c(N)nc3ccc(-c4cccc(S(C)(=O)=O)c4)cc3c2s1,252 to 255 °C
9,COC1=CC(=O)N([C@@H]2c3cc(C#N)ccc3OC(C)(C)[C@H]2O)C1 (relative stereo),225 °C
10,CN(C)C1CC2=CN(S(=O)(=O)c3ccccc3)C=C3C=CC(=O)CC1=C32 (centres undefined),114 to 116 °C
11,Nc1nnc(OCc2ccccc2)s1,173 to 175 °C
12,O=C(O)c1ccc2c(c1)Sc1ccc(F)cc1C(O)C2 (centres undefined),204 to 210 °C
13,O=C(O)COc1ccc(-c2noc3ccccc23)c(Cl)c1Cl,166 to 167 °C
14,CCN1c2ncc(CCc3cccc(N)c3)cc2C(=O)N(C)c2cccnc21,129 to 131 °C
15,CCC(=O)NCC1CC1c1c(Br)ccc2nn(C)cc12 (centres undefined),119 to 121 °C
16,CC(C)C(=O)CC1NC(=O)c2ccsc2-n2cccc21 (centres undefined),160 °C
17,CSCc1ccc2ncnc(Nc3cccc(C)c3)c2c1,134 to 136 °C
18,CCCCNC(=O)NS(=O)(=O)c1c(C(=O)OCC)cnn1C,117 to 119 °C
19,COc1ccc(C2=NN(C3CCN(CCCCCCN4C(=O)c5ccccc5C4=O)CC3)C(=O)[C@@H]3CC=CC[C@H]23)cc1OC,39 to 44 °C
20,O=C1NC(=O)C2(N1)C(=O)N(Cc1cc(Cl)c(Br)c(Cl)c1)c1ccccc12 (centres undefined),290 to 292 °C
21,CC(C)(C)c1cc(CCc2ccccc2NC(=O)N2CCCCCC2)cc(C(C)(C)C)c1O,136 to 138 °C
22,C[N+](C)(CCl)CCCC(=O)[O-],100 to 101 °C
23,CN1C(=O)C2CCCN2Cc2cc(Cl)ccc21 (centres undefined),97 to 99 °C
24,Cn1c(S(=O)(=O)c2ccc(C(=O)OCC(C)(C)C)c(Cl)c2)n[nH]c1=O,177 °C
25,Cc1ccc(O)cc1C(CCC(=O)O)Oc1cc(OCc2cccnc2)ccc1C#N (racemic),198 to 200 °C

row,SMILES,melting point
1,O=C(O)CC(C1CCCCC1)C1CCCCC1,118 to 120 °C
2,COC1=C(OC)C(=O)C2=C(CCC(CCOc3ccc(Cl)cc3)CC2)C1=O,117 to 119 °C
3,COc1cc(Cc2cnc(N)nc2N)cc(-c2ccc(O)cc2)c1OC,233 °C
4,CCC(=O)Nc1ccc(-c2ccc(C(=O)N3CCN4CCC3CC4)o2)cc1,264 °C
5,CCCNC(=O)C(C)Cc1ccc2c(c1)c(Cc1ccc(C(=O)O)cc1OC)cn2C(C)C (centres undefined),103 to 109 °C
6,O=[N+]([O-])c1cn2c(n1)OC[C@@H](OCc1ccc(Cl)nn1)C2,180 to 184 °C
7,Cc1cccc(NN)n1,54 to 56 °C
8,CN(C(CCn1c(=O)[nH]c2ccccc2c1=O)C(=O)NO)S(=O)(=O)c1ccc(Oc2cccc(Cl)c2)cc1 (centres undefined),137 to 140 °C
9,COc1cc(Nc2c(C#N)cnc3cc(-c4cccc([N+](=O)[O-])c4)ccc23)c(Cl)cc1Cl,287 to 288 °C
10,CCOc1ccc(S(=O)(=O)N2CCN(C)CC2)cc1-c1nc2c([nH]1)c1nncn1c(=O)n2CC,248 °C
11,C/C=C/CONC(=O)c1nc(-c2ccc(Cl)c(OC)c2F)cc(N)c1Cl,154 to 156 °C
12,NNC(=O)c1ccnc2[nH]ccc12,239 to 240 °C
13,COc1ccc(C2(c3cccc(-c4ccncc4)c3)N=C(N)N(C)C2=O)cc1C (centres undefined),175 °C
14,COc1ccc(OCCCCBr)c(C2(SC)Sc3ccccc3N(C)C2=O)c1 (centres undefined),102 to 103 °C
15,O=C(CCCN1CCN(c2ccc(F)cc2)CC1)NC1c2ccccc2CSc2ccccc21 (centres undefined),194 °C
16,Cc1nn(-c2cccnc2)cc1I,131 °C
17,O=C1c2ccccc2S(=O)(=O)N1CCNCC1COc2ccccc2O1 (centres undefined),181 °C
18,O=c1c2c(n(-c3ccccc3)c3ncccc13)OC(CBr)C2 (centres undefined),187 to 188 °C
19,O=C(N[C@H](CO)c1ccccc1)c1[nH]c2ccc(Cl)cc2c1S(=O)(=O)c1ccccc1,155 to 160 °C
20,CCc1nc(OC)c(NC(=O)N2CCN(c3cccc(O)c3)CC2)cc1C(=O)NC(C)C(=O)Nc1cc(CO)cc(Nc2c3ccccc3nc3ccccc23)c1 (centres undefined),207 to 209 °C
21,CSc1ccc(C)cc1S(=O)(=O)NC(C)(C)C,119 to 121 °C
22,COc1cc2ncnc(Nc3ccc4ccccc4n3)c2cc1OC,215 to 216 °C
23,N#Cc1cccc(C2=Nc3ccc(C#Cc4ccc(F)cc4)cc3NC(=O)C2)c1,245 to 246 °C
24,CC(=O)N1C(C(=O)NCCO[N+](=O)[O-])CSC1c1ccccc1 (centres undefined),103 to 105 °C
25,COc1cc(C)c(C=CC(C)=CC=CC(=O)O)c(C)c1C,189 to 191 °C

row,SMILES,melting point
1,C=CCOc1ccc(C(=O)Oc2ccc(O[Si](C)(C)C)cc2)cc1,87 °C
2,COC(=O)CNS(=O)(=O)c1c(C(=O)OC)sc2ccccc12,148 to 150 °C
3,CN1CCN(c2sc(-c3nc4ccccc4c(=O)n3-c3ccc(Cl)cc3)cc2-c2ccc(S(C)(=O)=O)cc2)CC1,232 to 233 °C
4,COc1cccc(-c2ccccc2)c1C(O)=S,97 to 98 °C
5,COc1ccc2c(c1)[C@H](c1ccccc1)CN(C)CC2,50 to 51 °C
6,COC/C=C\c1cccc(C2(c3ccc(OC(F)F)cc3)N=C(N)N(C)C2=O)c1 (centres undefined),41 to 44 °C
7,CN(C)CC#CCN1CCNC1=O,83 to 87 °C
8,COc1nc(C(F)(F)C(F)(F)F)cc(=O)n1-c1cc(C(=O)OC(C)C)c(Cl)cc1F,82 to 84 °C
9,CCOC(=O)[C@@H](NC(=O)[C@H](CC(C)C)NC(=O)OC(C)(C)C)[C@@H](C)O,67 to 70 °C
10,NC(=O)Nc1ccc2c(c1)C(=O)C1(CC1)O2,250 to 252 °C
11,CCNCCC(=O)Nc1ccc2c(c1)C(=O)c1cc(NC(=O)CCNCC)ccc1C2=O,181 °C
12,Cc1cc(-c2ccccc2)n2nc(N3CCN(Cc4ccccc4)CC3)c(C#N)c2n1,160 to 164 °C
13,O=C(Nc1ccc(O)cc1)c1c[nH]c2c1C(=O)CCCC2,178 to 179 °C
14,CCOC(=O)CC1NCCN(CCc2c[nH]c3ccccc23)C1=O (centres undefined),80 °C
15,COc1cc2c(cc1O)CCN(Cc1cccc(C(C)=O)c1)C2,132 to 134 °C
16,CCOC(=O)c1cc(NCc2ccccc2)c(Nc2ccccc2)c(S(N)(=O)=O)c1,160 to 161 °C
17,CCOC(=O)C1=C(C)NC(c2cnc(N)s2)=NC1c1ccc(F)cc1Cl (centres undefined),132 to 135 °C
18,CN(C(=O)c1ccccc1NC(=O)CN1C(=O)c2ccccc2C1=O)c1ccccc1,138 °C
19,O=C(O)[C@H](O)C1CCCCC1,124 to 126 °C
20,CCCCc1nc2cnc3ccccc3c2n1CCCCSc1ccc(F)cc1F,122 to 126 °C
21,NC(=O)Nc1cccc2c1C(=O)c1c-2n[nH]c1-c1ccco1,278 °C
22,CCc1ccc(S(=O)(=O)n2c(COC(C)(C)C(=O)O)cc3nc(Cl)ccc32)cc1,172 °C
23,COc1ccc(C(O)Cc2ccncc2)cc1OC1CCCC1 (centres undefined),97 to 101 °C
24,Cn1c(=O)[nH]c2cc(CC(=O)O)ccc21,220 °C
25,COC(=O)c1ccc(C#CCO)cc1,81 to 82 °C

row,SMILES,melting point
1,NC(=O)c1cnc2n(c1=O)CCCCC2,234 to 235 °C
2,CCOC(=O)c1ccc(NCC(C)Oc2ccc(F)cc2)cc1 (centres undefined),96 to 98 °C
3,O=[N+]([O-])c1cccc(-c2ccnc3ccnn23)c1,204 to 206 °C
4,Cc1c(Br)c(=O)n(-c2cc(C(=O)OC(C)C)c(Cl)cc2F)c(=O)n1C,127 to 129 °C
5,OCc1nc2cc(CN3CCN(C(c4ccccc4)c4ccccc4)CC3)ccc2[nH]1,137 °C
6,O=c1[nH]c2cc(F)ccc2n(C(c2ccccc2)c2ccccc2)c1=O,144 °C
7,CCOC(=O)c1cc(NCc2ccccc2)c(Nc2cccc(C(F)(F)F)c2)c(S(N)(=O)=O)c1,189 to 190 °C
8,CCOC(=O)N1CCc2cc(OC)c(OC)cc2C(Oc2ccc(C(F)(F)F)cc2)C1 (centres undefined),130 to 131 °C
9,CCOC(=O)C1=C(NC(=O)Nc2cc(C(=O)OC(C)C)c(Cl)cc2F)CCC1,146 to 149 °C
10,CC(C)(O)C[C@@H]1CO[C@](C)([C@H]2CC[C@H]3[C@@H](O)CCC[C@@]32C)C1,67 °C
11,Nc1nc2c(Cc3ccccn3)c[nH]c2c(=O)[nH]1,280 to 282 °C
12,CCn1nc2c(N)nc3c(c2c1CC(C)C)CCCC3,206 to 207 °C
13,CN(C)c1ccc(NC(=O)N(CC2CCCCC2)C[C@H]2CCCC[C@H]2CN(CC2CCCCC2)C(=O)Nc2ccc(N(C)C)cc2)cc1,102 to 106 °C
14,Cc1ccc(C(=O)c2cnn3c(-c4cccc(N(C)C(=O)C5CC5)c4)ccnc23)cc1,189 to 190 °C
15,Cn1ncc2c(=O)n3c(nc21)SC(c1ccccc1)C3c1ccccc1 (centres undefined),159 °C
16,O=C1CCCc2ccc(OCCCCN3CCN(c4cccc5ccc(F)cc45)CC3)nc2N1,202 to 203 °C
17,CCc1cc(C)cc(C)c1C1C(=O)N2CCN(OC)CCN2C1=O,213 to 215 °C
18,O=C(CCc1ccc2cc(F)ccc2n1)NO,208 to 210 °C
19,O=[N+]([O-])c1ccc(S(=O)(=O)c2ccc(Cl)cc2)nc1,177 to 180 °C
20,O=C(NCCCO)c1cccc(-c2cccn3c(=O)n(Cc4cccc(C(F)(F)F)c4)nc23)c1,148 to 149 °C
21,Cc1ccc(NC(=O)c2cccc(C(F)(F)F)c2)cc1Br,153 to 155 °C
22,CCCCc1ncc(/C=C(\Cc2cccs2)C(N)=O)n1Cc1ccc(C(N)=O)cc1,204 to 206 °C
23,COc1cc(-c2ncc(C(F)(F)F)cc2OC)ccc1Cl,62 to 63 °C
24,CSc1ccc(Cl)c(C(=O)Nc2ccc(-n3nc(C4CC4)cc3C3CC3)cc2)c1,168 to 173 °C

# From a melting point compilation (Tetko et al.; mined from patent text by program, amines drawn as free bases though some values may be those of a salt)
